We go through two substances from patent US7479478B2, “Human parathyroid hormone modifications, preparation and use” (The General Hospital Corporation, priority 1998, dated 2009).

The target in assay [1] is T1, rat PTH-1 receptors (Rattus norvegicus, UniProt P25961).
T1 construct: expressed in transfected cells
T1 sequence (P25961 27-591): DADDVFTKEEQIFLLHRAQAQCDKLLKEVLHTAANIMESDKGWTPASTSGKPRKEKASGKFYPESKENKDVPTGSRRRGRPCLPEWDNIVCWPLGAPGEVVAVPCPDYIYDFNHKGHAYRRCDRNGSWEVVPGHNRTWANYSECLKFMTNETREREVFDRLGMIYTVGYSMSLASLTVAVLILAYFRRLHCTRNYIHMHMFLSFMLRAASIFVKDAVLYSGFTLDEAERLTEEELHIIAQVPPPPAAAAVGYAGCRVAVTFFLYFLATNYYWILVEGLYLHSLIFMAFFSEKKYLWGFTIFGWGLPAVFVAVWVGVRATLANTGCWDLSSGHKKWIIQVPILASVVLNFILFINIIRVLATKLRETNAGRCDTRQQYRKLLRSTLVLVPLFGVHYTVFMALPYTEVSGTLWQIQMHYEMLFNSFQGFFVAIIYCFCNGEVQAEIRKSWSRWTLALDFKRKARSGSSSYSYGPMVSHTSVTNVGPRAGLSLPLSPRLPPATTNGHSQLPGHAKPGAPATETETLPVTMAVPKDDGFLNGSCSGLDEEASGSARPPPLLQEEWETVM
As to the kind of experiment: AC activation (cAMP) in EW5 cells. Format: cell-based. The method, then: HKRK B7 or EW5 cells (32), subclones of LLC-PKI renal epithelial cells that stably express human or rat PTH-1 receptors (950,000 and 320,000 receptors/cell, respectively), were maintained under 5% CO2 in air in Dulbecco's modified essential medium containing 7% fetal bovine serum (FBS) and 1% penicillin/streptomycin (GIBCO-BRL, Grand Island, N.Y.). HEK-293 and COS-7 cells were cultured similarly, except that 10% FBS was used in the medium. Cells were seeded into 24-well plates two days before assay at a density of 2-2.5×10^5 cells/well (HKRK B7 or EW 5 cells) or 6×10^5 cells/well (in 6-well plates) (HEK-293 cells). […]
Intracellular cAMP accumulation, PLC activation and PTHR binding affinity were measured as previously reported (Bringhurst, F. R., et al., Endocrinology 132(5):2090-2098 (1993); Guo, J., et al., Endocrinology 136(9):3884-3891 (1995)). Intracellular cAMP accumulation was measured in extracts of cells that were exposed to human PTH peptides in the presence of isobutylmethyxanthine (IBMX, 1 mM) at 37° C. for 15 min. After terminating the reactions by aspiration and freezing in liquid nitrogen, cell monolayers were extracted with 50 mM HCl and cAMP was measured using a radioimmunoassay kit (Dupont-New England Nuclear, Boston, Mass.). […]

Assay [2] addresses T1, rat PTH-1 receptors. Kind of assay: PLC activation in EW5 cells. It is filed as cell-based. Particulars: compared with human PTH-1 receptor. Here is the method: (§1) HKRK B7 or EW5 cells (32), subclones of LLC-PKI renal epithelial cells that stably express human or rat PTH-1 receptors (950,000 and 320,000 receptors/cell, respectively), were maintained under 5% CO2 in air in Dulbecco's modified essential medium containing 7% fetal bovine serum (FBS) and 1% penicillin/streptomycin (GIBCO-BRL, Grand Island, N.Y.). HEK-293 and COS-7 cells were cultured similarly, except that 10% FBS was used in the medium. Cells were seeded into 24-well plates two days before assay at a density of 2-2.5×10^5 cells/well (HKRK B7 or EW 5 cells) or 6×10^5 cells/well (in 6-well plates) (HEK-293 cells). In experiments involving HEK-293 cells, DNA transfections were performed 24 hr after plating and inositol radiolabel was added 24 hr thereafter (see below). COS-7 cell transfections were performed as previously described (Gardella, T. J., et al., Endocrinology 132(5):2024-2030 (1993))
PLC was activated by PTH agonists in the presence of 30 mM LiCl at 37° C. for 30 min after 16 hr of labeling with [^3H]myo-inositol (3 uCi/ml) in serum-free medium containing 0.1% bovine serum albumin. The reactions were stopped by rapid aspiration and addition of cold 5% TCA. Water-soluble radiolabeled inositol trisphosphate (IP3) was isolated after ether extraction by ion-exchange chromatography (Guo, J., et al., Endocrinology 136(9):3884-3891 (1995)). […]

Assay [3] deals with T2, human PTH-1 receptors (Homo sapiens, UniProt Q03431).
T2 construct: expressed in transfected cells
T2 sequence (Q03431 27-593): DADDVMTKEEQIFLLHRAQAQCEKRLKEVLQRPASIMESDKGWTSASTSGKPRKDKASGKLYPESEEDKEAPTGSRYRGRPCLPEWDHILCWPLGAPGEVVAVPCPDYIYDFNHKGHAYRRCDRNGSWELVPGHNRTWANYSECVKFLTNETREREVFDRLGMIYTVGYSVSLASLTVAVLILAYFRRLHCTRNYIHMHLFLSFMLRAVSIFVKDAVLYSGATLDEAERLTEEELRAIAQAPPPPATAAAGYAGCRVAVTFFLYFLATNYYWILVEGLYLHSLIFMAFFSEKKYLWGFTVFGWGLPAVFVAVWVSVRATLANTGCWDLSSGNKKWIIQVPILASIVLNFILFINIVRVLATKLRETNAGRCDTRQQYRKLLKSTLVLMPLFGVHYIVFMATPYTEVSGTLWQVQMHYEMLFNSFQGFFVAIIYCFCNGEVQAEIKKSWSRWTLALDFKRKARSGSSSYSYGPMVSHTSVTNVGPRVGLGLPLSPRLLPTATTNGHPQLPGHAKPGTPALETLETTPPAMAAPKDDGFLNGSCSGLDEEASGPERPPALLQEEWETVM
As to the kind of experiment: PLC activation (total inositol polyphosphates) in transiently transfected HEK-293 cells. Format: cell-based. Particulars: 1000 nM peptide, mean ± SEM. Here is the method:
as §1
PLC was activated by PTH agonists in the presence of 30 mM LiCl at 37° C. for 30 min after 16 hr of labeling with [^3H]myo-inositol (3 uCi/ml) in serum-free medium containing 0.1% bovine serum albumin. […]
Total inositol polyphosphate produced in response to 1000 nM of the peptides shown were measured in HEK-293 cells that transiently expressed human PTH-1 receptors. Results are expressed as means±SEMs of the % of basal activity for triplicate determinations.

In assay [4] the test system is membrane-bound PKCs. Particulars: osteoblast-like ROS 17/2 cells; Neugebauer et al. 1995; cited from earlier work.

No end group written: not given here.

As for “GVSEIQLMHNLGKHLNSMRRVEWLRKKL [[Gly^1,Arg^19]hPTH-(1-28)]”, the “fold impairment of EC50 for AC at the rat PTH-1 receptor relative to hPTH-(1-34)” value in assay [1] is “about 6 fold”.

In the case of “SVSEIQLMHNLGKHLNSMERVEWLRKKL-NH2 [hPTH-(1-28)]”, the “signaling (PLC) via rat PTH-1 receptors, result in words” value in assay [2] was “more severely impaired”. In addition, the “PLC Activity (% Basal)” value in assay [3] is reported as 305 ± 20 % Basal. The “stimulation of activity of membrane-bound PKCs” value in assay [4] is recorded as “incapable of stimulating”. In addition, in assay [1] (compared with human PTH-1 receptor), the “signaling (AC) via rat PTH-1 receptors, result in words” value is “more severely impaired”.
